Experimental data taken from patent publication US20160279190A1, “MODULATION OF AXON DEGENERATION” (GENENTECH, INC., priority 2008, published 2016).
“Also recorded” adds a separate entry of the source. Starred links: 1 amine or outer side, 2 acyl side, 3 side chain; linkers in the order of their positions; H or OH if unused. Positions of bridges follow the written chain, without caps; N, C: chain ends. Non-standard residues stand in square brackets, D forms with d. Residues, ends and D or L forms follow the SMILES beside them. Chains are numbered I, II in the order given. Actinocin(9to1) = Cc1c2oc3c(C)ccc(C(=O)[*:1])c3nc-2c(C(=O)[*:2])c(N)c1=O; NMeV = CN[C@H](C(=O)O)C(C)C; Sar = CNCC(=O)O

Key:
DRGs [1] = assay: anti-NGF antibody (NGF withdrawal) screen for inhibitors of neuron or axon degeneration; assay type: cell-based, mouse; settings: inhibitor 100 μM or 10 μM added 1 hour before 25 μg/ml anti-NGF antibodies; 20 hours; actin staining
Procedure: The anti-NGF antibody model described above in Example 1 was used in a screen for inhibitors of neuron or axon degeneration. A library of more than 400 small molecules (Tocris Bioscience) was tested to see which, if any, modulate degeneration observed in the presence of anti-NGF antibodies.
Mouse E13.5 embryos were dissected and placed into L15 medium (Invitrogen). The spinal cord was dissected out from the embryos with DRGs attached. The spinal cords with DRGs attached were placed into L15 medium+5% goat serum (Gibco) on ice. The DRGs were removed using a tungsten needle and the remaining spinal cord was disposed of. Eight well slides were filled with N3-F12 solution (23 ml Ham's F12, 1 ml N3 supplement, and 1 ml 1 M glucose) to which was added 25 ng/ml NGF (Roche). (N3 supplement was made by dilution of N3 100× concentrate, which was made by mixing the following ingredients, in the following order: 5.0 ml Hank's buffered saline solution (HBSS; Ca, Mg free; Invitrogen), 1.0 ml bovine serum albumin (10 mg/ml in HBSS=150 μm), 2.0 ml Transferrin (T1147-1G, human, 100 mg/ml in HBSS=1.1 mM), 1.0 ml sodium selenite (S9133-1MG, 0.01 mg/ml in HBSS=58 μM), 0.4 ml putrescine dihydrochloride (P5780-5G, 80 mg/ml in HBSS=500 mM), 0.2 ml progesterone (P8783-5G, 0.125 mg/ml in absolute ethanol=400 μM), 0.02 ml corticosterone (C2505-500MG, 2 mg/ml in absolute ethanol=5.8 mM), 0.1 ml triiodothyonine, sodium salt (T6397-100MG, 0.2 mg/ml in 0.01 N NaOH=300 μM), 0.4 ml insulin (16634-250MG, bovine pancreas, 241 U/mg, 25 mg/ml in 20 mM HCl=4.4 mM), for a total volume of 10.02 ml (can be stored at −20° C.). An N3 supplement stock was made by combining the following: 10 ml Pen/Strep (100×, Gibco), 10 ml glutamine (200 mM, Gibco), 10 ml MEM vitamins (100×, Gibco), 10 ml N3 concentrate (100×, see above), for a total volume of 40 ml. The mixture was filter sterilized using a 0.22 μm filter, and 1-2 ml aliquots were stored at −20° C.).
The DRGs were sectioned into halves, and placed in the center of each well of an 8-chamber slide (BD Biocoat PDL/Laminin coated glass, Becton Dickinson). The DRGs were permitted to attach to the slide at room temperature for 5-10 minutes, followed by an overnight incubation at 37° C. Inhibitors of choice were added at a concentration of 100 μM (top row) or 10 μM (bottom row) 1 hour before adding anti-NGF antibodies. The anti-NGF antibodies were added to the right half of the slide (4 wells) at a concentration of 25 μg/ml. After incubation for 20 hours at 37° C., the slides were fixed with 30% sucrose/8% paraformaldehyde (PFA) by adding 250 μl of the fix solution directly to the 250 μl of culture medium. (To make the 30% sucrose/8% PFA solution, the following ingredients were added to a 600 ml beaker including a stir bar: 250 ml 16% PFA (cat#15710-S, Electron Microscopy Sciences), 50 ml 10×PBS pH 7.4, and 150 g sucrose. The solution was mixed under low heat until dissolved, and then 6-8 drops of 1 M NaOH were added to bring the pH to 7.4. The volume was then brought to 500 ml with water in a graduated cylinder. The solution was mixed well, placed in aliquots, and frozen.) The slides were fixed for 30 minutes, followed by washing once with PBS. All cells were labeled with an actin stain (Alexa-568 conjugated phalloidin; 1:40; Invitrogen), a membrane dye (DiO; 1:200; Invitrogen), and a DNA stain (Hoechst 33258; 1:10,000; Invitrogen) in 0.1% Triton and 1% goat serum for 2 hours at room temperature. […]

DRG explants = assay: pan-JNK inhibitors in DRG explants, NGF withdrawal assay; assay type: cell-based; settings: anti-NGF plus inhibitor (FIG. 46)
Procedure: If DLK inhibition protects neurons from degeneration through limiting the phosphorylation of JNK2 and JNK3, then inhibitors of JNK2 or JNK3 should also protect neurons from cell death and axon degeneration. The ability of direct JNK inhibition to protect neurons against NGF withdrawal-dependent degeneration was also assessed. DRG explants were treated with anti-NGF and either pan-JNK inhibitor JNKV or JNKVIII, prior to assessment in the NGF withdrawal assay described above.

DRGs [2] = assay: Campenot chamber local axon degeneration, anti-NGF in axon compartment; assay type: cell-based, mouse; settings: for Axon Compartment (axon protected when inhibitor is in axon compartment) / Cell Body Compartment (axon protected when inhibitor is in cell body compartment): anti-NGF in axon compartment, 28 hours
Procedure: Teflon dividers (Tyler Research) were cleaned by washing in water and wiping them clean of any residual grease. Dividers were then soaked in Nochromix (Godax Laboratories)/sulfuric acid overnight, rinsed five times in distilled and autoclaved water (SQ water), boiled for 30 minutes, and then air-dried before use.
Mouse laminin (5 μg/ml in sterile filtered water; Invitrogen) was added to PDL coated 35 mm dishes (BD Biosciences) and they were incubated for 1 hour at 37° C., followed by two rinses in SQ water. The dishes were vacuum-dried and then air-dried in a laminar flow hood for 15 minutes. Prepared dishes were then scored with a pin rake (Tyler Research). […] High vacuum grease (VWR) was added to each Teflon divider under a dissection scope. The laminin coated PDL dishes were inverted and dropped onto the Teflon divider, with additional pressure added by use of a toothpick in the non-track-containing regions. Dishes were incubated for 1 hour at 37° C. Five hundred microliters of NBM+MC (50 ng/ml NGF) solution was added to each of the side compartments, and a grease barrier was added in front of the center cell slot.
Free E13.5 spinal cords were dissected from mouse embryos and placed into NBM+MC (25 ng/ml NGF) solution. DRGs were detached from the spinal cord with a tungsten needle. An NBM+MC-lubricated P200 pipette was used to move DRGs into a 1.5 ml tube. DRGs were pelleted with a tabletop centrifuge for 30 seconds. The supernate was discarded and 0.05% Trypsin/EDTA (cold) was added. The pellet was resolubilized with a pipette and incubated at 37° C. for 15 minutes with constant agitation (650 RPM). The sample was again centrifuged and the supernate discarded. The pellet was resuspended in warm NBM+MC (50 ng/ml NGF) solution and triturated with a flamed glass pipette 20 times, followed by trituration with a fire-bored glass pipette another 20 times. The samples were again centrifuged and the resulting pellets were resuspended in 0.5 ml NBM+MC (50 ng/ml NGF) solution. The cells were diluted to a final concentration of 2.5×10^6 cells/ml. The cell suspensions were loaded into a 1 ml syringe with a 22 gauge needle. The center slot of the Campenot divider was filled using the syringe (to a volume of at least 50 μl). The Campenot chamber was incubated overnight at 37° C. 2.5 ml NGF+MC (50 ng/ml NGF) solution was added to the center compartment and the grease gate was removed. The outer medium (cell body compartment) was replaced after three days with 2.5 ml NBM+MC medium (with 25 ng/ml NGF). After five days in culture, one distal compartment was washed three times with warmed NBM+MC (no NGF) solution. After the third wash, 500 μl NBM+MC (no NGF) solution was added to the axon compartment in combination with either 0.5% DMSO or an inhibitor. The cell body compartment was replaced with 2.5 ml NBM+MC medium (with 25 ng/ml NGF) containing either 0.5% DMSO or inhibitor.
After 28 hours of anti-NGF antibody treatment, 8% PFA/30% sucrose solution (see above) was added directly to the culture medium at a 1:1 dilution and incubated for 30 minutes. The Teflon divider was removed after the first 15 minutes of addition. The system was washed once with 2.5 ml PBS prior to immunostaining. Neurons were blocked in 5% BSA/0.2% triton in PBS for 30 minutes. The primary antibody Tuj1 (Covance) was added to a final dilution of 1:1000 in PBS containing 2% BSA and incubated overnight at 4° C. The dish was washed once with PBS. […] The dish was washed twice with PBS, and a 22×22 mm coverslip (VWR) was added with 350 μl of fluoromount G (Electron Microscopy Sciences). The neurons were visualized by use of a fluorescence microscope.
As described above, E13.5 DRGs were isolated and grown for 5 days in a Campenot chamber.

[3] = inhibitor 15 μM, listed as Act D

## C=C[C@@]1(C)CC(=O)[C@]2(O)[C@@]3(C)[C@@H](O)CCC(C)(C)[C@@H]3[C@H](OC(=O)CCN(C)C)[C@H](OC(C)=O)[C@@]2(C)O1 [NKH 477]
DRGs [1]
  Comments (observations on protection against neurodegeneration upon NGF withdrawal): Partial

## CCOc1nc(NC(=O)Cc2cc(OC)ccc2OC)cc(N)c1C#N [JNKVIII]
DRG explants
  most protective concentration: 4 µM
  protection of DRG explants from NGF-dependent degeneration: able to protect DRG explants from NGF-dependent degeneration

## O=C1NC(=O)C(c2cn(CCCO)c3ncccc23)=C1c1cnccn1 [GSK3 inhibitor XI]
DRGs [2]; inhibitor 30 μM
  Axon Compartment (axon protected when inhibitor is in axon compartment): No (2)
  Cell Body Compartment (axon protected when inhibitor is in cell body compartment): Yes (2)

## C=C[C@@]1(C)CC(=O)[C@]2(O)[C@@]3(C)[C@@H](O)CCC(C)(C)[C@@H]3[C@H](O)[C@H](OC(C)=O)[C@@]2(C)O1 [Forskolin]
DRGs [2]; inhibitor 3 μM
  Axon Compartment (axon protected when inhibitor is in axon compartment): Yes (2)
  Cell Body Compartment (axon protected when inhibitor is in cell body compartment): Yes (2)

## C[S+]([O-])c1ccc(-c2nc(-c3ccc(F)cc3)c(-c3ccncc3)[nH]2)cc1.Cl (centres unmarked) [SB 203580 HCI]
DRGs [1]
  Comments (observations on protection against neurodegeneration upon NGF withdrawal): Partial

## Cc1c2oc3c(C)ccc(C(=O)N[C@@H]4C(=O)N[C@H](C(C)C)C(=O)N5CCC[C@H]5C(=O)N(C)CC(=O)N(C)[C@@H](C(C)C)C(=O)O[C@@H]4C)c3nc-2c(C(=O)N[C@@H]2C(=O)N[C@H](C(C)C)C(=O)N3CCC[C@H]3C(=O)N(C)CC(=O)N(C)[C@@H](C(C)C)C(=O)O[C@@H]2C)c(N)c1=O [Actinomycin D] (I: T[dV]P[Sar][NMeV] / II: T[dV]P[Sar][NMeV]; ester I:1-I:C, II:1-II:C; linker I:N-II:N via Actinocin(9to1))
DRGs [2]; cell body inhibitors added to cell body compartment: 30 μM SB415, 15 μM Act D
  formation of varicosities in locally NGF-deprived axons: large number of axons with varicosities, as well as fragmented axons
DRGs [2]; inhibitor 15 μM
  Axon Compartment (axon protected when inhibitor is in axon compartment): No (4)
  Cell Body Compartment (axon protected when inhibitor is in cell body compartment): Yes (4)
DRGs [2]; [3]
  Axon Compartment (axon protected when inhibitor is in axon compartment): failed to prevent degeneration
  Cell Body Compartment (axon protected when inhibitor is in cell body compartment): did not degenerate; also recorded: protected from local degeneration

## CCN(c1ccccc1)c1cc(NC)[n+](C)c(C)n1.[Cl-] [ZD7288]
DRGs [2]; inhibitor 5 μM
  Axon Compartment (axon protected when inhibitor is in axon compartment): No (3)
  Cell Body Compartment (axon protected when inhibitor is in cell body compartment): Yes (3)

## C[C@@H]1C[C@@H]([C@H](O)CC2CC(=O)NC(=O)C2)C(=O)[C@@H](C)C1 [Cycloheximide]
DRGs [2]; inhibitor 5 μM
  Axon Compartment (axon protected when inhibitor is in axon compartment): No (2)
  Cell Body Compartment (axon protected when inhibitor is in cell body compartment): Yes (2)

## COc1ccc(CNC(=O)Nc2ncc([N+](=O)[O-])s2)cc1 [AR-A014418]
DRGs [2]; inhibitor 20 μM
  Axon Compartment (axon protected when inhibitor is in axon compartment): No (1)
  Cell Body Compartment (axon protected when inhibitor is in cell body compartment): Yes (1)

## N#C/C(=C1/Nc2ccccc2S1)c1ccnc(NCCc2cccnc2)n1 [JNKV]
DRG explants
  most protective concentration: 5 µM
  protection of DRG explants from NGF-dependent degeneration: able to protect DRG explants from NGF-dependent degeneration

## CC(NC(=O)/C(C#N)=C/c1ccc(O)c(O)c1)c1ccccc1 (centres unmarked) [Tyrphostin B44]
DRGs [1]
  Comments (observations on protection against neurodegeneration upon NGF withdrawal): Partial

## OC(CN1CCNCC1)Cn1c2ccc(Br)cc2c2cc(Br)ccc21 (centres unmarked) [Bax Channel Blocker]
DRGs [1]
  Comments (observations on protection against neurodegeneration upon NGF withdrawal): Cell bodies detach
